Experimental data published in US10251394B2, “Molecules having pesticidal utility, and intermediates, compositions, and processes, related thereto” (Dow AgroSciences LLC, priority 2016, dated 2019).

How the values were obtained:
Format in all cases: in vivo
[1] = system: Beet Armyworm (Spodoptera exigua); assay: Bioassay on Beet Armyworm (BAW), 128-well diet tray assay; conditions: Beet Armyworm, Table ABC, read-out: BAW rating
Method in brief: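 Percent mortality, averaged over eight wells, was scored after five to seven days at 25° C under 14:10 light-dark. Each well's diet carried 50 μg/cm^2 of test molecule applied in acetone-water (90:10) and dried before one to five second-instar larvae were added.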

[2] = system: Cabbage Looper (Trichoplusia ni); assay: Bioassay on Cabbage Looper (CL), 128-well diet tray assay; conditions: Cabbage Looper, Table ABC, read-out: CL rating
Method in brief: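 Mortality after five to seven days at 25° C (14:10 photoperiod), averaged over eight wells per compound. Diet in each well carried 50 μg/cm^2 of dried test molecule and received one to five second-instar larvae.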

[3] = system: Yellow Fever Mosquito (Aedes aegypti); assay: Bioassay on Yellow Fever Mosquito (YFM) larvae, 96-well plate; conditions: Table ABC
Description: Example C: Bioassays on Yellow Fever Mosquito (Aedes Aegypti, AEDSAE) (“YFM”)
Certain molecules disclosed in this document were tested against YFM using procedures described in the following paragraph. In the reporting of the results, the “GPA & YFM Rating Table” was used (See Table Section).
Master plates containing 400 μg of a molecule dissolved in 100 μL of dimethyl sulfoxide (DMSO) (equivalent to a 4000 ppm solution) are used. A master plate of assembled molecules contains 15 μL per well. To this plate, 135 μL of a 90:10 water:acetone mixture is added to each well. A robot (Biomek® NXP Laboratory Automation Workstation) is programmed to dispense 15 μL aspirations from the master plate into an empty 96-well shallow plate (“daughter” plate). There are 6 reps (“daughter” plates) created per master. The created daughter plates are then immediately infested with YFM larvae.
The day before plates are to be treated, mosquito eggs are placed in Millipore water containing liver powder to begin hatching (4 g. into 400 mL). After the daughter plates are created using the robot, they are infested with 220 μL of the liver powder/larval mosquito mixture (about 1 day-old larvae). After plates are infested with mosquito larvae, a non-evaporative lid is used to cover the plate to reduce drying. Plates are held at room temperature for 3 days prior to grading. After 3 days, each well is observed and scored based on mortality. The results are indicated in the table entitled “Table ABC: Biological Results” (See Table Section).

C[C@@H](NC(=O)c1ccc(/C(F)=C/C(c2ccc(Cl)c(Cl)c2)C(F)(F)F)cc1C(F)(F)F)C(=O)N(C)CC(F)(F)F (stereo partly drawn) [F73, 4-((Z)-3-(3,4-Dichlorophenyl)-1,4,4,4-tetrafluorobut-1-en-1-yl)-N—((R)-1-(methyl(2,2,2-trifluoroethyl)amino)-1-oxopropan-2-yl)-2-(trifluoromethyl)benzamide]
pest or weed control at 50 µg/cm2 [1]: 50 to 100%
pest or weed control at 50 µg/cm2 [2]: 50 to 100%
YFM rating [3]: A (80-100)

CN(CC(F)(F)F)C(=O)CNC(=O)c1ccc(/C(F)=C/C(c2ccc(Cl)c(Cl)c2)C(F)(F)F)cc1C(F)(F)F (stereo not drawn) [F74, (Z)-4-(3-(3,4-Dichlorophenyl)-1,4,4,4-tetrafluorobut-1-en-1-yl)-N-(2-(methyl(2,2,2-trifluoroethyl)amino)-2-oxoethyl)-2-(trifluoromethyl)benzamide]
pest or weed control at 50 µg/cm2 [1]: 50 to 100%
pest or weed control at 50 µg/cm2 [2]: 50 to 100%
YFM rating [3]: A (80-100)

CN(CC(F)(F)F)C(=O)CNC(=O)c1ccc(/C(F)=C/C(c2cc(Cl)c(Br)c(Cl)c2)C(F)(F)F)cc1C(F)(F)F (stereo not drawn) [F75, (Z)-4-(3-(4-Bromo-3,5-dichlorophenyl)-1,4,4,4-tetrafluorobut-1-en-1-yl)-N-(2-(methyl(2,2,2-trifluoroethyl)amino)-2-oxoethyl)-2-(trifluoromethyl)benzamide]
pest or weed control at 50 µg/cm2 [1]: 50 to 100%
pest or weed control at 50 µg/cm2 [2]: 50 to 100%
YFM rating [3]: A (80-100)

C[C@@H](NC(=O)c1ccc(/C(F)=C/C(c2cc(Cl)c(Br)c(Cl)c2)C(F)(F)F)cc1C(F)(F)F)C(=O)N(C)CC(F)(F)F (stereo partly drawn) [F76, 4-((Z)-3-(4-Bromo-3,5-dichlorophenyl)-1,4,4,4-tetrafluorobut-1-en-1-yl)-N—((R)-1-(methyl(2,2,2-trifluoroethyl)amino)-1-oxopropan-2-yl)-2-(trifluoromethyl)benzamide]
pest or weed control at 50 µg/cm2 [1]: 50 to 100%
pest or weed control at 50 µg/cm2 [2]: 50 to 100%
YFM rating [3]: A (80-100)

CN(CC(F)(F)F)C(=O)CNC(=O)c1ccc(/C(F)=C/C(c2cc(Br)c(Cl)c(Br)c2)C(F)(F)F)cc1C(F)(F)F (stereo not drawn) [F77, (Z)-4-(3-(3,5-Dibromo-4-chlorophenyl)-1,4,4,4-tetrafluorobut-1-en-1-yl)-N-(2-(methyl(2,2,2-trifluoroethyl)amino)-2-oxoethyl)-2-(trifluoromethyl)benzamide]
pest or weed control at 50 µg/cm2 [1]: 50 to 100%
pest or weed control at 50 µg/cm2 [2]: 50 to 100%
YFM rating [3]: A (80-100)

C[C@@H](NC(=O)c1ccc(/C(F)=C/C(c2cc(Br)c(Cl)c(Br)c2)C(F)(F)F)cc1C(F)(F)F)C(=O)N(C)CC(F)(F)F (stereo partly drawn) [F78, 4-((Z)-3-(3,5-Dibromo-4-chlorophenyl)-1,4,4,4-tetrafluorobut-1-en-1-yl)-N—((R)-1-(methyl(2,2,2-trifluoroethyl)amino)-1-oxopropan-2-yl)-2-(trifluoromethyl)benzamide]
pest or weed control at 50 µg/cm2 [1]: 50 to 100%
pest or weed control at 50 µg/cm2 [2]: 50 to 100%
YFM rating [3]: A (80-100)

C[C@@H](NC(=O)c1ccc(/C(F)=C/C(c2ccc(Br)c(Br)c2)C(F)(F)F)cc1C(F)(F)F)C(=O)NCC(F)(F)F (stereo partly drawn) [F79, 4-((Z)-3-(3,4-Dibromophenyl)-1,4,4,4-tetrafluorobut-1-en-1-yl)-N—((R)-1-oxo-1-((2,2,2-trifluoroethyl)amino)propan-2-yl)-2-(trifluoromethyl)benzamide]
pest or weed control at 50 µg/cm2 [1]: 50 to 100%
pest or weed control at 50 µg/cm2 [2]: 50 to 100%
YFM rating [3]: A (80-100)

O=C(NC1(C(=O)NCC(F)(F)F)CC1)c1ccc(/C(F)=C/C(c2ccc(Br)c(Br)c2)C(F)(F)F)cc1C(F)(F)F (stereo not drawn) [F80, (Z)-4-(3-(3,4-Dibromophenyl)-1,4,4,4-tetrafluorobut-1-en-1-yl)-N-(1-((2,2,2-trifluoroethyl)carbamoyl)cyclopropyl)-2-(trifluoromethyl)benzamide]
pest or weed control at 50 µg/cm2 [1]: 50 to 100%
pest or weed control at 50 µg/cm2 [2]: 50 to 100%
YFM rating [3]: A (80-100)

C[C@@H](NC(=O)c1ccc(/C(F)=C/C(c2cc(Cl)c(F)c(Cl)c2)C(F)(F)F)cc1C(F)(F)F)C(=O)N(C)CC(F)(F)F (stereo partly drawn) [F81, 4-((Z)-3-(3,5-Dichloro-4-fluorophenyl)-1,4,4,4-tetrafluorobut-1-en-1-yl)-N—((R)-1-(methyl(2,2,2-trifluoroethyl)amino)-1-oxopropan-2-yl)-2-(trifluoromethyl)benzamide]
pest or weed control at 50 µg/cm2 [1]: 50 to 100%
pest or weed control at 50 µg/cm2 [2]: 50 to 100%
YFM rating [3]: A (80-100)

CN(CC(F)(F)F)C(=O)CNC(=O)c1ccc(/C(F)=C/C(c2cc(Cl)c(F)c(Cl)c2)C(F)(F)F)cc1C(F)(F)F (stereo not drawn) [F82, (Z)-4-(3-(3,5-Dichloro-4-fluorophenyl)-1,4,4,4-tetrafluorobut-1-en-1-yl)-N-(2-(methyl(2,2,2-trifluoroethyl)amino)-2-oxoethyl)-2-(trifluoromethyl)benzamide]
pest or weed control at 50 µg/cm2 [1]: 50 to 100%
pest or weed control at 50 µg/cm2 [2]: 50 to 100%
YFM rating [3]: A (80-100)

C[C@@H](NC(=O)c1ccc(/C(F)=C/C(c2cc(Br)cc(Br)c2)C(F)(F)F)cc1C(F)(F)F)C(=O)N(C)CC(F)(F)F (stereo partly drawn) [F83, 4-((Z)-3-(3,5-Dibromophenyl)-1,4,4,4-tetrafluorobut-1-en-1-yl)-N—((R)-1-(methyl(2,2,2-trifluoroethyl)amino)-1-oxopropan-2-yl)-2-(trifluoromethyl)benzamide]
pest or weed control at 50 µg/cm2 [1]: 50 to 100%
pest or weed control at 50 µg/cm2 [2]: 50 to 100%
YFM rating [3]: A (80-100)

CN(CC(F)(F)F)C(=O)CNC(=O)c1ccc(/C(F)=C/C(c2cc(Br)cc(Br)c2)C(F)(F)F)cc1C(F)(F)F (stereo not drawn) [F84, (Z)-4-(3-(3,5-Dibromophenyl)-1,4,4,4-tetrafluorobut-1-en-1-yl)-N-(2-(methyl(2,2,2-trifluoroethyl)amino)-2-oxoethyl)-2-(trifluoromethyl)benzamide]
pest or weed control at 50 µg/cm2 [1]: 50 to 100%
pest or weed control at 50 µg/cm2 [2]: 50 to 100%
YFM rating [3]: A (80-100)

C=Cc1c(Cl)cc(C(/C=C(\F)c2ccc(C(=O)NCC(=O)N(C)CC(F)(F)F)c(C(F)(F)F)c2)C(F)(F)F)cc1Cl (stereo not drawn) [F85, (Z)-4-(3-(3,5-Dichloro-4-vinylphenyl)-1,4,4,4-tetrafluorobut-1-en-1-yl)-N-(2-(methyl(2,2,2-trifluoroethyl)amino)-2-oxoethyl)-2-(trifluoromethyl)benzamide]
pest or weed control at 50 µg/cm2 [1]: 50 to 100%
pest or weed control at 50 µg/cm2 [2]: 50 to 100%
YFM rating [3]: A (80-100)

C=Cc1c(Cl)cc(C(/C=C(\F)c2ccc(C(=O)N[C@H](C)C(=O)N(C)CC(F)(F)F)c(C(F)(F)F)c2)C(F)(F)F)cc1Cl (stereo partly drawn) [F86, 4-((Z)-3-(3,5-Dichloro-4-vinylphenyl)-1,4,4,4-tetrafluorobut-1-en-1-yl)-N—((R)-1-(methyl(2,2,2-trifluoroethyl)amino)-1-oxopropan-2-yl)-2-(trifluoromethyl)benzamide]
pest or weed control at 50 µg/cm2 [1]: 50 to 100%
pest or weed control at 50 µg/cm2 [2]: 50 to 100%
YFM rating [3]: A (80-100)

CN(CC(F)(F)F)C(=O)CN(C)C(=O)c1ccc(/C(F)=C/C(c2cc(Cl)c(Cl)c(Cl)c2)C(F)(F)F)cc1C(F)(F)F (stereo not drawn) [F99, (Z)—N-Methyl-N-(2-(methyl(2,2,2-trifluoroethyl)amino)-2-oxoethyl)-4-(1,4,4,4-tetrafluoro-3-(3,4,5-trichlorophenyl)but-1-en-1-yl)-2-(trifluoromethyl)benzamide]
pest or weed control at 50 µg/cm2 [1]: 50 to 100%
pest or weed control at 50 µg/cm2 [2]: 50 to 100%
YFM rating [3]: A (80-100)

Cc1cc(C(/C=C(\F)c2ccc(C(=O)N[C@H](C)C(=O)N(C)CC(F)(F)F)c(C(F)(F)F)c2)C(F)(F)F)cc(C)c1Cl (stereo partly drawn) [F102, 4-((Z)-3-(4-Chloro-3,5-dimethylphenyl)-1,4,4,4-tetrafluorobut-1-en-1-yl)-N—((R)-1-(methyl(2,2,2-trifluoroethyl)amino)-1-oxopropan-2-yl)-2-(trifluoromethyl)benzamide]
pest or weed control at 50 µg/cm2 [1]: 50 to 100%
pest or weed control at 50 µg/cm2 [2]: 50 to 100%
YFM rating [3]: A (80-100)

Cc1cc(C(/C=C(\F)c2ccc(C(=O)NCC(=O)N(C)CC(F)(F)F)c(C(F)(F)F)c2)C(F)(F)F)cc(C)c1Cl (stereo not drawn) [F103, (Z)-4-(3-(4-Chloro-3,5-dimethylphenyl)-1,4,4,4-tetrafluorobut-1-en-1-yl)-N-(2-(methyl(2,2,2-trifluoroethyl)amino)-2-oxoethyl)-2-(trifluoromethyl)benzamide]
pest or weed control at 50 µg/cm2 [1]: 50 to 100%
pest or weed control at 50 µg/cm2 [2]: 50 to 100%
YFM rating [3]: B (More than 0-Less than 80)

C=Cc1c(Cl)cc(C(/C=C(\F)c2ccc(C(=O)NC3(C(=O)NCC(F)(F)F)CC3)c(C(F)(F)F)c2)C(F)(F)F)cc1Cl (stereo not drawn) [F113, (Z)-4-(3-(3,5-Dichloro-4-vinylphenyl)-1,4,4,4-tetrafluorobut-1-en-1-yl)-N-(1-((2,2,2-trifluoroethyl)carbamoyl)cyclopropyl)-2-(trifluoromethyl)benzamide]
pest or weed control at 50 µg/cm2 [1]: 50 to 100%
pest or weed control at 50 µg/cm2 [2]: 50 to 100%
YFM rating [3]: A (80-100)
